Measured values reported in patent US8916526B2, “Flavanone derivative” (National University Corporation Okayama University, priority 2009, dated 2014).

What was measured:
[1] = system: Vancomycin-resistant enterococci NCTC 12201; assay: In vitro infectivity assay (MIC), Exp. Ex. 2-1; assay type: cell-based; conditions: Enterococcus, NCTC 12201 / VRE; Gram-positive; microdilution, MIC after 24 h; read-out: MIC VRE NCTC 12201
Method in brief: (§1)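 CLSI broth dilution; Mueller-Hinton + 0.85% NaCl; inoculum ~10^5 CUF/[…]; 35° C, 24 h; MIC read, n=3.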

[2] = system: Vancomycin intermediate-resistant Staphylococcus aureus Mu50; assay: In vitro infectivity assay (MIC), Exp. Ex. 2-1; assay type: cell-based; conditions: Staphylococcus aureus, VISA; Gram-positive; microdilution, MIC after 24 h; read-out: MIC VISA Mu50
Method in brief: as §1

[3] = system: Vancomycin-resistant enterococci FN-1; assay: In vitro infectivity assay (MIC), Exp. Ex. 2-1; assay type: cell-based; conditions: Enterococcus, VRE; Gram-positive; microdilution, MIC after 24 h; read-out: MIC VRE FN-1
Method in brief: as §1

[4] = system: Methicillin-resistant S. aureus OM481; assay: In vitro infectivity assay (MIC), Exp. Ex. 2-1; assay type: cell-based, Staphylococcus aureus; conditions: Staphylococcus aureus, MRSA; Gram-positive; microdilution, MIC after 24 h; read-out: MIC MRSA OM481
Method in brief: as §1

[5] = system: Methicillin-resistant S. aureus N315; assay: In vitro infectivity assay (MIC), Exp. Ex. 2-1; assay type: cell-based, Staphylococcus aureus; conditions: Staphylococcus aureus, MRSA; Gram-positive; microdilution, MIC after 24 h; read-out: MIC MRSA N315
Method in brief: as §1

[6] = system: Methicillin-resistant S. aureus COL; assay: In vitro infectivity assay (MIC), Exp. Ex. 2-1; assay type: cell-based, Staphylococcus aureus; conditions: Staphylococcus aureus, MRSA; Gram-positive; microdilution, MIC after 24 h
[7] = system: Methicillin-resistant S. aureus OM584; assay: In vitro infectivity assay (MIC), Exp. Ex. 2-1; assay type: cell-based, Staphylococcus aureus; conditions: Staphylococcus aureus, MRSA; Gram-positive; microdilution, MIC after 24 h; read-out: MIC MRSA OM584
Method in brief: as §1

[8] = system: Methicillin sensitive S. aureus 209P; assay: In vitro infectivity assay (MIC), Exp. Ex. 2-1; assay type: cell-based, Staphylococcus aureus; conditions: Staphylococcus aureus, 209P / MSSA; Gram-positive; microdilution, MIC after 24 h; read-out: MIC MSSA 209P
Method in brief: as §1

[9] = molecular target: T1, DNA gyrase of Escherichia coli (Escherichia coli, UniProt P0AES4+P0AES6); assay: DNA gyrase inhibition (supercoiling assay kit), Exp. Ex. 1-2; assay type: biochemical; conditions: E. coli DNA gyrase supercoiling, relaxed pBR322, 37° C., 30 minutes; read-out: Gyrase inhibitory activity IC50 (converted)
T1 construct: purchased John Innes Enterprises #K0001
T1 sequence (P0AES4 whole entry, one chain of several): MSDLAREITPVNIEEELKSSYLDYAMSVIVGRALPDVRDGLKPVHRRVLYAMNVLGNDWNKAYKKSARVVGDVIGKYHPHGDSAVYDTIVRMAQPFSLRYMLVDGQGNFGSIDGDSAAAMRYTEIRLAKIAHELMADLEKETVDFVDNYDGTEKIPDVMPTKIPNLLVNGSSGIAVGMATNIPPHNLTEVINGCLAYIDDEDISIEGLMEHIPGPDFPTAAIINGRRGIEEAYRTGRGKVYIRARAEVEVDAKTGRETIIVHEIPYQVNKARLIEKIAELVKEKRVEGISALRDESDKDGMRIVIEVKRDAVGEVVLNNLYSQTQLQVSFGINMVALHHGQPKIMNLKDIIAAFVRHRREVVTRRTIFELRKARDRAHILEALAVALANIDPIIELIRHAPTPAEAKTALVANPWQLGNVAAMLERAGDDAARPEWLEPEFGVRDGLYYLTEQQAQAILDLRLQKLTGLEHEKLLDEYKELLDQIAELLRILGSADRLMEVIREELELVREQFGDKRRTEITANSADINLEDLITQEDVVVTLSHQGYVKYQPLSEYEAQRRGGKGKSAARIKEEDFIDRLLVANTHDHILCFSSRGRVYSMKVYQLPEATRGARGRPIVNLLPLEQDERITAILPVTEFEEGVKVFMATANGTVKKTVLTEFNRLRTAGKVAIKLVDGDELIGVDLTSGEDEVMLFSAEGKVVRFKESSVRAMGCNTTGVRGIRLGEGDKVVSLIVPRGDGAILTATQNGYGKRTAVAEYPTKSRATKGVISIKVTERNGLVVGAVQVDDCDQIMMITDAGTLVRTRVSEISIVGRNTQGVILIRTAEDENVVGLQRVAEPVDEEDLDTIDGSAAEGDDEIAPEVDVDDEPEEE
Method in brief: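 Relaxed pBR322 DNA […] supercoiled by 1 U E. coli gyrase for 30 min at 37 °C in 35 mM Tris-HCl pH 7.5, 24 mM KCl, 4 mM MgCl2, 2 mM DTT, 1.8 mM spermidine, 1 mM ATP, 6.5% glycerol, 0.1 mg/ml BSA. Products resolved by gel electrophoresis; IC50 determined.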

O=c1c(O)c(-c2ccc(O)c(O)c2)oc2cc(O)cc(O)c12 [Quercetin, quercetin, reference compound]
MIC [1]: > 128 µg/mL
MIC [2]: > 128 µg/mL
MIC [3]: > 128 µg/mL
MIC [4]: > 128 µg/mL
MIC [5]: > 128 µg/mL
MIC [6]: > 128 µg/mL
MIC [7]: > 128 µg/mL
MIC [8]: > 128 µg/mL
IC50 [9]: 2610 nM
